Tested on: K24384-001-R-PDC complex spheroids, viability
Test: Anticancer human tumor K24384-001-R-PDC patient-derived pancreatic adenocarcinoma cell line growth inhibition [GQUAD]
Conditions: for IC50: curve of first compound; for viability, T/C: stronger effect = lower value; active = viability on the fitted dose curve at most 10% of control; inactive = the rest
Text: DNA G-quadruplex Stabilizer Agents in Combinations in Complex Spheroids
A high-throughput screen of multi-cell type tumor spheroids was designed to identify active combinations of DNA G-quadruplex stabilizer agents and targeted small molecules. Complex spheroids include a stromal component modeled by human endothelial cells (HUVEC) and fibroblasts modeled by human mesenchymal stem cells (MSCs). The concentration ranges selected for each drug and investigational agent were based upon clinically achievable concentrations if the clinical Cmax of the agent was known.
Compounds. The drugs and investigational agents: pidnarulex (CX-5461; NSC782164), APTO-253 (NSC789042), BRACO-19 (NSC847499), peposertib (NSC802822), ceralasertib (NSC780249), elimusertib (NSC800525), camonsertib (NSC841442), AZD-1390 (NSC803789), olaparib (NSC753686), talazoparib (NSC767125), ART-558 (NSC835418), sotorasib (NSC818433), MRTX-1133 (NSC836407), SN-38 (NSC673596), topotecan (NSC609699), etoposide (NSC141540), doxorubicin (NSC123127), gemcitabine (NSC613327), 5-fluorouracil (NSC19893), paclitaxel (NSC125973), vemurafenib (NSC761431), panobinostat (NSC761190), R-306465 (JNJ-16241199; NSC773264), adavosertib (NSC754352), TP-3654 (NSC805149), carboplatin (NSC241240), KSQ-4279 (NSC840948), and staurosporine (NSC755774) were obtained from the National Cancer Institute (NCI) Developmental Therapeutics Program Chemical Repository (34). The FDA-approved anticancer drug set is available from the NCI Developmental Therapeutics Program. […] The stock solutions were prepared in dimethyl sulfoxide (DMSO, Sigma-Aldrich, St. Louis, MO, cat. D2650) at 800-fold the tested concentration and stored at -70 degrees C prior to their use. All drugs and investigational agents were tested over a range starting from a high concentration at or near the clinical Cmax and decreasing in half-log increments. If the clinical Cmax for an agent had not been determined, the highest concentration tested was 10 microM.
2.3 Cell Culture. All cells were maintained in an incubator at 37 degrees C and 5% CO2 with 95% humidity. The PDC lines were cultured according to standard operating procedures established by the NCI PDMR. All PDCs were thawed and cultured in Matrigel-coated flasks prepared with a working solution of 1X Ham's F-12 nutrient mix, without supplementation (Invitrogen, cat. 11765054), 100 U/mL penicillin-streptomycin (Invitrogen, cat. 15140122), and 2.5% Matrigel (Corning Inc., cat. 354248) for the first three passages. The 857933-349-R-J2-PDC line was cultured in 6C/Colon 1B media, which includes advanced DMEM/F-12 (Thermo Fisher Scientific, cat. 12634028), 10 mM HEPES (Thermo Fisher Scientific, cat. 15630080), 1X GlutaMAX supplement (Thermo Fisher Scientific, cat. 35050061), 0.1 mg/mL primocin (InvivoGen, cat. ant-pm-2), 10% defined fetal bovine serum, heat inactivated (HyClone Laboratories Inc., cat. SH30070.03HI), 50% L-WRN conditioned media (ATCC, cat. CRL-3276), 1.25 mM N-Acetyl-L-cysteine (Sigma-Aldrich, cat. A9165), 10 mM nicotinamide (Sigma-Aldrich, cat. N0636), 1X B-27 supplement (Thermo Fisher Scientific, cat. 17504044), 1X N-2 supplement (Thermo Fisher Scientific, cat. 17502048), 10 microM Y-27632 dihydrochloride (Tocris Bioscience, cat. 1254), and 50 ng/mL human EGF recombinant protein (Thermo Fisher Scientific, cat. PHG0311). The 485176-168-R4-J1-PDC line was cultured in Panc media, which includes all 6C/Colon 1B media components plus 100 ng/mL human FGF-10 (Thermo Fisher Scientific, cat. 100-26), 500 nM SB-431542 (Selleckchem, cat. S1067), and gastrin (Tocris, cat. 3006).
[…]

[1] = second compound 0.0316 µM, first compound 0.0316 µM
[2] = second compound 0.0316 µM, first compound 0.1 µM
[3] = second compound 0.0316 µM, first compound 0.316 µM
[4] = second compound 0.0316 µM, first compound 1 µM
[5] = second compound 0.0316 µM, first compound 3.16 µM
[6] = second compound 0.0316 µM, first compound 10 µM
[7] = second compound 0.1 µM, first compound 0.0316 µM
[8] = second compound 0.1 µM, first compound 0.1 µM
[9] = second compound 0.1 µM, first compound 0.316 µM
[10] = second compound 0.1 µM, first compound 1 µM
[11] = second compound 0.1 µM, first compound 3.16 µM
[12] = second compound 0.1 µM, first compound 10 µM
[13] = second compound 0.316 µM, first compound 0.0316 µM
[14] = second compound 0.316 µM, first compound 0.1 µM
[15] = second compound 0.316 µM, first compound 0.316 µM
[16] = second compound 0.316 µM, first compound 1 µM
[17] = second compound 0.316 µM, first compound 3.16 µM
[18] = second compound 0.316 µM, first compound 10 µM
[19] = second compound 1 µM, first compound 0.0316 µM
[20] = second compound 1 µM, first compound 0.1 µM
[21] = second compound 1 µM, first compound 0.316 µM
[22] = second compound 1 µM, first compound 1 µM
[23] = second compound 1 µM, first compound 3.16 µM
[24] = second compound 1 µM, first compound 10 µM
[25] = second compound 3.16 µM, first compound 0.0316 µM
[26] = second compound 3.16 µM, first compound 0.1 µM
[27] = second compound 3.16 µM, first compound 0.316 µM
[28] = second compound 3.16 µM, first compound 1 µM
[29] = second compound 3.16 µM, first compound 3.16 µM
[30] = second compound 3.16 µM, first compound 10 µM
[31] = second compound 10 µM, first compound 0.0316 µM
[32] = second compound 10 µM, first compound 0.1 µM
[33] = second compound 10 µM, first compound 0.316 µM
[34] = second compound 10 µM, first compound 1 µM
[35] = second compound 10 µM, first compound 3.16 µM
[36] = second compound 10 µM, first compound 10 µM
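Note: spheroids exposed to compounds for seven days.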

CCCS(=O)(=O)Nc1ccc(F)c(C(=O)c2c[nH]c3ncc(-c4ccc(Cl)cc4)cc23)c1F + CN(C)c1ccc(Nc2c3ccc(NC(=O)CCN4CCCC4)cc3nc3cc(NC(=O)CCN4CCCC4)ccc23)cc1
9980 nM: IC50 (second compound 0.1 µM)
9350 nM: IC50 (second compound 3.16 µM)
inactive: viability, T/C [1] 110% | viability, T/C [2] 102% | viability, T/C [3] 129% | viability, T/C [4] 128% | viability, T/C [5] 138% | viability, T/C [6] 54% | viability, T/C [7] 98.5% | viability, T/C [8] 118% | viability, T/C [9] 113% | viability, T/C [10] 124% | viability, T/C [11] 150% | viability, T/C [12] 49.8% | viability, T/C [13] 93.5% | viability, T/C [14] 114% | viability, T/C [15] 124% | viability, T/C [16] 125% | viability, T/C [17] 144% | viability, T/C [18] 52% | viability, T/C [19] 102% | viability, T/C [20] 105% | viability, T/C [21] 117% | viability, T/C [22] 131% | viability, T/C [23] 154% | viability, T/C [24] 53.3% | viability, T/C [25] 92.7% | viability, T/C [26] 101% | viability, T/C [27] 97.2% | viability, T/C [28] 128% | viability, T/C [29] 140% | viability, T/C [30] 46% | viability, T/C [31] 84.3% | viability, T/C [32] 114% | viability, T/C [33] 109% | viability, T/C [34] 149% | viability, T/C [35] 139% | viability, T/C [36] 31.3%
7840 nM: IC50 (second compound 10 µM)
> 10000 nM: IC50 (second compound 0.0316 µM) | IC50 (second compound 0.316 µM) | IC50 (second compound 1 µM)

COc1cc(C2c3cc4c(cc3C(OC3OC5COC(C)OC5C(O)C3O)C3COC(=O)C23)OCO4)cc(OC)c1O (centres undefined) + CN(C)c1ccc(Nc2c3ccc(NC(=O)CCN4CCCC4)cc3nc3cc(NC(=O)CCN4CCCC4)ccc23)cc1
762 nM: IC50 (second compound 0.316 µM)
665 nM: IC50 (second compound 3.16 µM)
836 nM: IC50 (second compound 0.1 µM)
807 nM: IC50 (second compound 1 µM)
958 nM: IC50 (second compound 0.0316 µM)
710 nM: IC50 (second compound 10 µM)
inactive: viability, T/C [1] 105% | viability, T/C [2] 87.1% | viability, T/C [3] 79.1% | viability, T/C [4] 46% | viability, T/C [5] 36.7% | viability, T/C [6] 37.5% | viability, T/C [7] 92% | viability, T/C [8] 99.7% | viability, T/C [9] 76.8% | viability, T/C [10] 46.3% | viability, T/C [11] 40.2% | viability, T/C [12] 41.4% | viability, T/C [13] 94.9% | viability, T/C [14] 91% | viability, T/C [15] 76.1% | viability, T/C [16] 40.9% | viability, T/C [17] 45.3% | viability, T/C [18] 39.5% | viability, T/C [19] 93.2% | viability, T/C [20] 95.3% | viability, T/C [21] 81.2% | viability, T/C [22] 42.9% | viability, T/C [23] 43% | viability, T/C [24] 38.5% | viability, T/C [25] 93.8% | viability, T/C [26] 104% | viability, T/C [27] 67.7% | viability, T/C [28] 46.8% | viability, T/C [29] 36.9% | viability, T/C [30] 37.2% | viability, T/C [31] 94.3% | viability, T/C [32] 105% | viability, T/C [33] 60.9% | viability, T/C [34] 59.1% | viability, T/C [35] 30.8% | viability, T/C [36] 46.3%

— PubChem BioAssay AID2060483 (Molecular Pharmacology Branch, DTP, NCI, 2025)
